Laboratory results: PubChem BioAssay AID2060501 (Molecular Pharmacology Branch, DTP, NCI, 2025)

Test system: 282377-053-R-J1-PDC complex spheroids, viability
Assay: Anticancer human tumor 282377-053-R-J1-PDC patient-derived colon adenocarcinoma cell line growth inhibition [GQUAD]
Conditions: for IC50: curve of first compound; for viability, T/C: stronger effect = lower value
Summary of the method: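 Multi-cell-type spheroids of tumor cells with HUVEC and mesenchymal stem cells, treated with drug combinations. Concentrations descend in half-log steps from near clinical Cmax, or from 10 microM where Cmax is unknown; viability read-out.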

[1] = second compound 0.0316 µM, first compound 0.000999 µM
[2] = second compound 0.0316 µM, first compound 0.00316 µM
[3] = second compound 0.0316 µM, first compound 0.00999 µM
[4] = second compound 0.0316 µM, first compound 0.0316 µM
[5] = second compound 0.0316 µM, first compound 0.0999 µM
[6] = second compound 0.0316 µM, first compound 0.316 µM
[7] = second compound 0.1 µM, first compound 0.000999 µM
[8] = second compound 0.1 µM, first compound 0.00316 µM
[9] = second compound 0.1 µM, first compound 0.00999 µM
[10] = second compound 0.1 µM, first compound 0.0316 µM
[11] = second compound 0.1 µM, first compound 0.0999 µM
[12] = second compound 0.1 µM, first compound 0.316 µM
[13] = second compound 0.316 µM, first compound 0.000999 µM
[14] = second compound 0.316 µM, first compound 0.00316 µM
[15] = second compound 0.316 µM, first compound 0.00999 µM
[16] = second compound 0.316 µM, first compound 0.0316 µM
[17] = second compound 0.316 µM, first compound 0.0999 µM
[18] = second compound 0.316 µM, first compound 0.316 µM
[19] = second compound 1 µM, first compound 0.000999 µM
[20] = second compound 1 µM, first compound 0.00316 µM
[21] = second compound 1 µM, first compound 0.00999 µM
[22] = second compound 1 µM, first compound 0.0316 µM
[23] = second compound 1 µM, first compound 0.0999 µM
[24] = second compound 1 µM, first compound 0.316 µM
[25] = second compound 3.16 µM, first compound 0.000999 µM
[26] = second compound 3.16 µM, first compound 0.00316 µM
[27] = second compound 3.16 µM, first compound 0.00999 µM
[28] = second compound 3.16 µM, first compound 0.0316 µM
[29] = second compound 3.16 µM, first compound 0.0999 µM
[30] = second compound 3.16 µM, first compound 0.316 µM
[31] = second compound 10 µM, first compound 0.000999 µM
[32] = second compound 10 µM, first compound 0.00316 µM
[33] = second compound 10 µM, first compound 0.00999 µM
[34] = second compound 10 µM, first compound 0.0316 µM
[35] = second compound 10 µM, first compound 0.0999 µM
[36] = second compound 10 µM, first compound 0.316 µM
[37] = second compound 0.0316 µM, first compound 0.1 µM
[38] = second compound 0.0316 µM, first compound 1 µM
[39] = second compound 0.0316 µM, first compound 3.16 µM
[40] = second compound 0.0316 µM, first compound 10 µM
[41] = second compound 0.1 µM, first compound 0.1 µM
[42] = second compound 0.1 µM, first compound 1 µM
[43] = second compound 0.1 µM, first compound 3.16 µM
[44] = second compound 0.1 µM, first compound 10 µM
[45] = second compound 0.316 µM, first compound 0.1 µM
[46] = second compound 0.316 µM, first compound 1 µM
[47] = second compound 0.316 µM, first compound 3.16 µM
[48] = second compound 0.316 µM, first compound 10 µM
[49] = second compound 1 µM, first compound 0.1 µM
[50] = second compound 1 µM, first compound 1 µM
[51] = second compound 1 µM, first compound 3.16 µM
[52] = second compound 1 µM, first compound 10 µM
[53] = second compound 3.16 µM, first compound 0.1 µM
[54] = second compound 3.16 µM, first compound 1 µM
[55] = second compound 3.16 µM, first compound 3.16 µM
[56] = second compound 3.16 µM, first compound 10 µM
[57] = second compound 10 µM, first compound 0.1 µM
[58] = second compound 10 µM, first compound 1 µM
[59] = second compound 10 µM, first compound 3.16 µM
[60] = second compound 10 µM, first compound 10 µM
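Also: spheroids exposed to compounds for 7 days before readout.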
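For viability, T/C in this document: percent of vehicle DMSO control viability with 100% = untreated-like growth.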

CCc1c2c(nc3ccc(O)cc13)-c1cc3c(c(=O)n1C2)COC(=O)[C@]3(O)CC + Cc1[nH]c2ccc(F)cc2c1-c1nc2c3cccnc3c3ncccc3c2[nH]1
IC50 (second compound 0.0316 µM): 27.8 nM | IC50 (second compound 0.1 µM): 26.7 nM | IC50 (second compound 0.316 µM): 35.2 nM | IC50 (second compound 1 µM): 20.5 nM | IC50 (second compound 3.16 µM): 3.28 nM | IC50 (second compound 10 µM): < 0.999 nM | viability, T/C [1]: 125% | viability, T/C [2]: 79.7% | viability, T/C [3]: 65.6% | viability, T/C [4]: 54.4% | viability, T/C [5]: 37.9% | viability, T/C [6]: 29.4% | viability, T/C [7]: 112% | viability, T/C [8]: 99.3% | viability, T/C [9]: 64% | viability, T/C [10]: 49.8% | viability, T/C [11]: 34.2% | viability, T/C [12]: 25.5% | viability, T/C [13]: 107% | viability, T/C [14]: 83.3% | viability, T/C [15]: 64.4% | viability, T/C [16]: 47.9% | viability, T/C [17]: 46.8% | viability, T/C [18]: 26.9% | viability, T/C [19]: 87.2% | viability, T/C [20]: 77.6% | viability, T/C [21]: 52.6% | viability, T/C [22]: 47% | viability, T/C [23]: 36.6% | viability, T/C [24]: 25.9% | viability, T/C [25]: 71.5% | viability, T/C [26]: 51% | viability, T/C [27]: 33.4% | viability, T/C [28]: 25.9% | viability, T/C [29]: 17.1% | viability, T/C [30]: 11.8% | viability, T/C [31]: 21.1% | viability, T/C [32]: 29.2% | viability, T/C [33]: 12.5% | viability, T/C [34]: 8.86% | viability, T/C [35]: 9.45% | viability, T/C [36]: 8.4%

Cc1cccc(N(C)C(=O)C2C(O)CCN2c2nc(C)cc(C(F)(F)F)c2C#N)c1 (stereo not drawn) + Cc1[nH]c2ccc(F)cc2c1-c1nc2c3cccnc3c3ncccc3c2[nH]1
IC50 (second compound 0.0316 µM): > 10000 nM | IC50 (second compound 0.1 µM): > 10000 nM | IC50 (second compound 0.316 µM): > 10000 nM | IC50 (second compound 1 µM): > 10000 nM | IC50 (second compound 3.16 µM): > 10000 nM | IC50 (second compound 10 µM): 567 nM | viability, T/C [4]: 89.3% | viability, T/C [37]: 94.1% | viability, T/C [6]: 113% | viability, T/C [38]: 95.9% | viability, T/C [39]: 100% | viability, T/C [40]: 76.2% | viability, T/C [10]: 95.7% | viability, T/C [41]: 91.3% | viability, T/C [12]: 83.5% | viability, T/C [42]: 109% | viability, T/C [43]: 82.8% | viability, T/C [44]: 94.6% | viability, T/C [16]: 77.2% | viability, T/C [45]: 100% | viability, T/C [18]: 92.1% | viability, T/C [46]: 92.8% | viability, T/C [47]: 93% | viability, T/C [48]: 114% | viability, T/C [22]: 86% | viability, T/C [49]: 88.3% | viability, T/C [24]: 94.6% | viability, T/C [50]: 109% | viability, T/C [51]: 86.2% | viability, T/C [52]: 89.6% | viability, T/C [28]: 78% | viability, T/C [53]: 73% | viability, T/C [30]: 66.8% | viability, T/C [54]: 65.7% | viability, T/C [55]: 75.5% | viability, T/C [56]: 79.3% | viability, T/C [34]: 47% | viability, T/C [57]: 56.4% | viability, T/C [36]: 66.4% | viability, T/C [58]: 43.6% | viability, T/C [59]: 36.8% | viability, T/C [60]: 35%

Cn1ncnc1[C@H]1c2n[nH]c(=O)c3cc(F)cc(c23)N[C@@H]1c1ccc(F)cc1 + Cc1[nH]c2ccc(F)cc2c1-c1nc2c3cccnc3c3ncccc3c2[nH]1
IC50 (second compound 0.0316 µM): > 316 nM | IC50 (second compound 0.1 µM): > 316 nM | IC50 (second compound 0.316 µM): > 316 nM | IC50 (second compound 1 µM): > 316 nM | IC50 (second compound 3.16 µM): > 316 nM | IC50 (second compound 10 µM): > 316 nM | viability, T/C [1]: 95.8% | viability, T/C [2]: 80.1% | viability, T/C [3]: 96.7% | viability, T/C [4]: 88.1% | viability, T/C [5]: 109% | viability, T/C [6]: 90.2% | viability, T/C [7]: 91.8% | viability, T/C [8]: 87.3% | viability, T/C [9]: 101% | viability, T/C [10]: 85.3% | viability, T/C [11]: 93.2% | viability, T/C [12]: 97.9% | viability, T/C [13]: 95.1% | viability, T/C [14]: 104% | viability, T/C [15]: 81.1% | viability, T/C [16]: 110% | viability, T/C [17]: 90.5% | viability, T/C [18]: 106% | viability, T/C [19]: 79.3% | viability, T/C [20]: 87.7% | viability, T/C [21]: 80.7% | viability, T/C [22]: 89.2% | viability, T/C [23]: 111% | viability, T/C [24]: 86% | viability, T/C [25]: 67.7% | viability, T/C [26]: 65.8% | viability, T/C [27]: 71.8% | viability, T/C [28]: 66.4% | viability, T/C [29]: 86.8% | viability, T/C [30]: 70.3% | viability, T/C [31]: 48.9% | viability, T/C [32]: 51.7% | viability, T/C [33]: 57.2% | viability, T/C [34]: 45% | viability, T/C [35]: 41.1% | viability, T/C [36]: 57.4%

O=C(c1cc(Cc2n[nH]c(=O)c3ccccc23)ccc1F)N1CCN(C(=O)C2CC2)CC1 + Cc1[nH]c2ccc(F)cc2c1-c1nc2c3cccnc3c3ncccc3c2[nH]1
IC50 (second compound 0.0316 µM): > 10000 nM | IC50 (second compound 0.1 µM): > 10000 nM | IC50 (second compound 0.316 µM): > 10000 nM | IC50 (second compound 1 µM): > 10000 nM | IC50 (second compound 3.16 µM): > 10000 nM | IC50 (second compound 10 µM): 1550 nM | viability, T/C [4]: 134% | viability, T/C [37]: 107% | viability, T/C [6]: 102% | viability, T/C [38]: 122% | viability, T/C [39]: 110% | viability, T/C [40]: 92% | viability, T/C [10]: 87.8% | viability, T/C [41]: 98.6% | viability, T/C [12]: 99.2% | viability, T/C [42]: 99.6% | viability, T/C [43]: 105% | viability, T/C [44]: 89% | viability, T/C [16]: 92.8% | viability, T/C [45]: 115% | viability, T/C [18]: 101% | viability, T/C [46]: 107% | viability, T/C [47]: 97.1% | viability, T/C [48]: 97% | viability, T/C [22]: 101% | viability, T/C [49]: 111% | viability, T/C [24]: 122% | viability, T/C [50]: 111% | viability, T/C [51]: 110% | viability, T/C [52]: 114% | viability, T/C [28]: 75.4% | viability, T/C [53]: 76.7% | viability, T/C [30]: 93% | viability, T/C [54]: 79.1% | viability, T/C [55]: 69.8% | viability, T/C [56]: 54.7% | viability, T/C [34]: 58.2% | viability, T/C [57]: 40.2% | viability, T/C [36]: 71.9% | viability, T/C [58]: 57.9% | viability, T/C [59]: 38.4% | viability, T/C [60]: 25.8%
